{"source": "patent US20250275948A1", "about": "“(N-[4-(2,3-DIHYDRO-1H-INDEN-5-YL)-1,3-THIAZOL-2-YL]-2-[4-METHYL-4-(NAPHTHALEN-2-YL)-2,5-DIOXOIMIDAZOLIDIN-1-YL]ACETAMIDE AS STABILIZER OF CLOCK:BMAL1 INTERACTION FOR THE TREATMENT OF CIRCADIAN RHYTHM DISEASES AND DISORDERS” (KOC UNIVERSITESI, priority 2022, published 2025)", "key": {"[1]": {"tested_on": "CLOCK and BMAL1", "assay": "Effect on core clock protein levels (western blot), U2OS Bmal1-dLuc cells", "format": "cell-based, human", "details": "unsynchronized U2OS Bmal1:dLuc cells, 24 hours", "procedure": "The effect of CLK95 on core-clock proteins was assessed both on synchronized and unsynchronized U2OS Bmal1-dLuc cells. Cells were seeded into 6 well-plates with a density of 45×10^4 cell/well and incubated at 37° C. under 5% CO2 for 16 hours. For unsynchronized cells, they were treated with appropriate amounts CLK95 (final 0.25% DMSO) and further incubated for 24 hours. For synchronized cells, cell media was exchanged with 0.1 μM Dexamethasone containing DMEM. After synchronization, cells were subjected to the CLK95 (final 0.25% DMSO). After 24 hours of incubation, cells were harvested with 6 hours intervals for 7 time points (24H-60H). Then harvested cells were lysed with 90 μL RIPA buffer (50 mM Tris-HCl pH 7.4, 150 mM NaCl, 1% Triton x-100, 0.1% SDS, 1×PIC) and left for an incubation on ice for 30 minutes. Following, samples were centrifugated at 15000×g for 20 minutes at 4° C. After boiling samples with Laemmli buffer for 7 minutes at 95° C., 10 μg of protein was loaded for each sample to 10% SDS-polyacrylamide gel. For Western blot analysis following antibodies used to determine the level of core clock proteins: anti-CLOCK (Bethyl, A302-618A), anti-BMAL1 (Santa Cruz Biotech., SC-365645), anti-PER2 (Proteintech, 67513-1-Ig), anti-CRY1 (Bethyl, A302-614A), and anti-β-Actin (Cell Signaling, 8H10D10) antibodies."}, "[2]": {"tested_on": "CLOCK and BMAL1", "assay": "Subcellular fractionation of U2OS Bmal1-dLuc cells", "format": "cell-based, human", "details": "unsynchronized U2OS Bmal1-dLuc cells, 5 μM, 24 hours", "procedure": "Subcellular fractionation was performed to explore if CLK95 effects the subcellular localization of core-clock proteins. U2OS Bmal1-dLuc cells were plated with a density of 40×10^4 cell/well in 6 well plate, a day prior to small molecule treatment. Following, cells were treated with either DMSO (0.25%) or 5 μM CLK95. 24 hours after small molecule treatment, cells were harvested to get fractionated. Cells were harvested with 1 mL ice cold-1×PBS, and pelleted at 5000×g for 7 minutes at 4° C. After discarding supernatants, cells were resuspended with 200 μL Cytosolic Lysis Buffer (CLB) (10 mM HEPES pH 7.9, 10 mM KCl, 0.1 mM EDTA pH 8.0, 0.05% NP-40, 1×PIC) and incubated on ice for 10 minutes. Then, samples were centrifuged at 660×g for 5 minutes (4° C.). While supernatants were transferred to new centrifuge tubes as cytosolic fractions, pellets were washed with 200 μL CLB buffer for 3 times. At the end of each wash, samples were centrifugated at 660×g for 5 minutes at 4° C. Next, cell pellets were resuspended in 100 μL Nuclear Lysis Buffer (NLB) (20 mM HEPES pH 7.9, 0.4M NaCl, 1 mM EDTA, 10% Glycerol, 1×PIC) and subjected to sonication (60% power, 10 seconds, 3 cycles) (BANDELIN SONOPULS HD 2070 homogeniser) for 2 times. This step was followed by centrifugation at 15000×g for 5 minutes with the cytosolic fractions. […]"}}}
{"smiles": "CC1(c2ccc3ccccc3c2)NC(=O)N(CC(=O)Nc2nc(-c3ccc4c(c3)CCC4)cs2)C1=O", "note": "(centres unmarked) [CLK95]", "values": [{"measurement": "CLOCK and BMAL1 protein levels", "setting": "[1]", "result": "increased"}, {"measurement": "nuclear localization of CLOCK and BMAL1", "setting": "[2]", "result": "increasing the nuclear localization of CLOCK and BMAL1"}]}
